Test results as given in ChEMBL document CHEMBL3994568 (2016).
Converted amounts (≈) assume the structure as drawn.

Columns and labels:
Format in all cases: functional
[1] = tested on: Cyberlindnera jadinii; assay: Antifungal activity against Candida utilis ATCC 9950 after 24 hrs by two-fold microbroth dilution method; conditions: Williopsis jadinii, ATCC 9950, 24 h
[2] = tested on: Aspergillus flavus; assay: Antifungal activity against Aspergillus flavus ATCC 204304 after 24 hrs by two-fold microbroth dilution method; conditions: ATCC 204304, 24 h
[3] = tested on: Saccharomyces cerevisiae; assay: Antifungal activity against Saccharomyces cerevisiae ATCC 9763 after 24 hrs by two-fold microbroth dilution method; conditions: ATCC 9763, 24 h
[4] = tested on: Candida albicans; assay: Antifungal activity against Candida albicans ATCC 10231 after 24 hrs by two-fold microbroth dilution method; conditions: ATCC 10231, 24 h
[5] = tested on: Pichia norvegensis; assay: Antifungal activity against Candida mycoderma ATCC 9888 after 24 hrs by two-fold microbroth dilution method; conditions: ATCC 9888, 24 h
[6] = tested on: Bacillus; assay: Antibacterial activity against Bacillus proteus ATCC 13315 after 24 hrs by two-fold microbroth dilution method; conditions: ATCC 13315, 24 h
[7] = Antibacterial activity against Eberthella typhosa ATCC 14028 after 24 hrs by two-fold microbroth dilution method; conditions: ATCC 14028, 24 h
[8] = tested on: Staphylococcus aureus; assay: Antibacterial activity against methicillin-resistant Staphylococcus aureus N315 after 24 hrs by two-fold microbroth dilution method; conditions: N315, 24 h
[9] = tested on: Staphylococcus aureus; assay: Antibacterial activity against Staphylococcus aureus ATCC 25923 after 24 hrs by two-fold microbroth dilution method; conditions: ATCC 25923, 24 h
[10] = tested on: Bacillus spizizenii; assay: Antibacterial activity against Bacillus subtilis ATCC 6633 after 24 hrs by two-fold microbroth dilution method; conditions: ATCC 6633, 24 h
[11] = tested on: Micrococcus luteus; assay: Antibacterial activity against Micrococcus luteus ATCC 4698 after 24 hrs by two-fold microbroth dilution method; conditions: NCTC 2665, 24 h
[12] = tested on: Escherichia coli; assay: Antibacterial activity against Escherichia coli JM109 after 24 hrs by two-fold microbroth dilution method; conditions: JM109, 24 h
[13] = tested on: Pseudomonas aeruginosa; assay: Antibacterial activity against Pseudomonas aeruginosa ATCC 27853 after 24 hrs by two-fold microbroth dilution method; conditions: ATCC 27853, 24 h
[14] = tested on: HEp-2; assay: Cytotoxicity against human Hep2 cells assessed as cell viability up to 125 ug/ml after 24 hrs by CCK8 assay relative to control
[15] = tested on: Pseudomonas aeruginosa; assay: Potency index, ratio of chloromycin MIC to compound MIC for Pseudomonas aeruginosa ATCC 27853

| Compound | MIC [1] | MIC [2] | MIC [3] | MIC [4] | MIC [5] | MIC [6] | MIC [7] | MIC [8] | MIC [9] | MIC [10] | MIC [11] | MIC [12] | MIC [13] | Activity [14] | Ratio [15] |
| --- | --- | --- | --- | --- | --- | --- | --- | --- | --- | --- | --- | --- | --- | --- | --- |
| OC(Cn1cncn1)(Cn1cncn1)c1ccc(F)cc1F [FLUCONAZOLE] | 8 µg/mL (≈ 26.1 µM) | 256 µg/mL (≈ 836 µM) | 16 µg/mL (≈ 52.2 µM) | 32 µg/mL (≈ 104 µM) | 32 µg/mL (≈ 104 µM) | – | – | – | – | – | – | – | – | – | – |
| O=C(N[C@H](CO)[C@H](O)c1ccc([N+](=O)[O-])cc1)C(Cl)Cl [CHLORAMPHENICOL] | – | – | – | – | – | 32 µg/mL (≈ 99 µM) | 32 µg/mL (≈ 99 µM) | 64 µg/mL (≈ 198 µM) | 8 µg/mL (≈ 24.8 µM) | 32 µg/mL (≈ 99 µM) | 64 µg/mL (≈ 198 µM) | – | – | – | – |
| CCCn1c2ccc(C(=O)CCl)cc2c2cc(C(=O)CCl)ccc21 | 256 µg/mL (≈ 707 µM) | 512 µg/mL (≈ 1410 µM) | 256 µg/mL (≈ 707 µM) | 256 µg/mL (≈ 707 µM) | 512 µg/mL (≈ 1410 µM) | 128 µg/mL (≈ 353 µM) | 256 µg/mL (≈ 707 µM) | 512 µg/mL (≈ 1410 µM) | 512 µg/mL (≈ 1410 µM) | 512 µg/mL (≈ 1410 µM) | 512 µg/mL (≈ 1410 µM) | 256 µg/mL (≈ 707 µM) | 256 µg/mL (≈ 707 µM) | – | – |
| CCCn1c2ccc(-c3csc(N)n3)cc2c2cc(-c3csc(N)n3)ccc21 | 128 µg/mL (≈ 316 µM) | 256 µg/mL (≈ 631 µM) | 256 µg/mL (≈ 631 µM) | 64 µg/mL (≈ 158 µM) | 256 µg/mL (≈ 631 µM) | 256 µg/mL (≈ 631 µM) | 256 µg/mL (≈ 631 µM) | 256 µg/mL (≈ 631 µM) | 128 µg/mL (≈ 316 µM) | 128 µg/mL (≈ 316 µM) | 128 µg/mL (≈ 316 µM) | 256 µg/mL (≈ 631 µM) | 128 µg/mL (≈ 316 µM) | – | – |
| CCn1c2ccc(-c3csc(N)n3)cc2c2cc(-c3csc(N)n3)ccc21 | 128 µg/mL (≈ 327 µM) | 256 µg/mL (≈ 654 µM) | 256 µg/mL (≈ 654 µM) | 64 µg/mL (≈ 163 µM) | 64 µg/mL (≈ 163 µM) | 256 µg/mL (≈ 654 µM) | 256 µg/mL (≈ 654 µM) | 512 µg/mL (≈ 1310 µM) | 256 µg/mL (≈ 654 µM) | 256 µg/mL (≈ 654 µM) | 128 µg/mL (≈ 327 µM) | 128 µg/mL (≈ 327 µM) | 256 µg/mL (≈ 654 µM) | – | – |
| CCCCCCCCn1c2ccc(-c3csc(N)n3)cc2c2cc(-c3csc(N)n3)ccc21 | 512 µg/mL (≈ 1080 µM) | 256 µg/mL (≈ 538 µM) | 512 µg/mL (≈ 1080 µM) | 512 µg/mL (≈ 1080 µM) | 512 µg/mL (≈ 1080 µM) | 128 µg/mL (≈ 269 µM) | 512 µg/mL (≈ 1080 µM) | 32 µg/mL (≈ 67.3 µM) | 64 µg/mL (≈ 135 µM) | 512 µg/mL (≈ 1080 µM) | 512 µg/mL (≈ 1080 µM) | 512 µg/mL (≈ 1080 µM) | 512 µg/mL (≈ 1080 µM) | – | – |
| CCCCCn1c2ccc(-c3csc(N)n3)cc2c2cc(-c3csc(N)n3)ccc21 | 128 µg/mL (≈ 295 µM) | 256 µg/mL (≈ 590 µM) | 128 µg/mL (≈ 295 µM) | 128 µg/mL (≈ 295 µM) | 64 µg/mL (≈ 148 µM) | 256 µg/mL (≈ 590 µM) | 128 µg/mL (≈ 295 µM) | 128 µg/mL (≈ 295 µM) | 64 µg/mL (≈ 148 µM) | 256 µg/mL (≈ 590 µM) | 64 µg/mL (≈ 148 µM) | 256 µg/mL (≈ 590 µM) | 2 µg/mL (≈ 4.61 µM) | 85% | 8 |
| CCn1c2ccc(C(=O)CCl)cc2c2cc(C(=O)CCl)ccc21 | 256 µg/mL (≈ 735 µM) | 256 µg/mL (≈ 735 µM) | 128 µg/mL (≈ 368 µM) | 512 µg/mL (≈ 1470 µM) | 128 µg/mL (≈ 368 µM) | 512 µg/mL (≈ 1470 µM) | 512 µg/mL (≈ 1470 µM) | 512 µg/mL (≈ 1470 µM) | 256 µg/mL (≈ 735 µM) | 512 µg/mL (≈ 1470 µM) | 256 µg/mL (≈ 735 µM) | 512 µg/mL (≈ 1470 µM) | 256 µg/mL (≈ 735 µM) | – | – |
| CCCCCCCCn1c2ccc(C(=O)CCl)cc2c2cc(C(=O)CCl)ccc21 | 512 µg/mL (≈ 1180 µM) | 512 µg/mL (≈ 1180 µM) | 256 µg/mL (≈ 592 µM) | 512 µg/mL (≈ 1180 µM) | 512 µg/mL (≈ 1180 µM) | 512 µg/mL (≈ 1180 µM) | 512 µg/mL (≈ 1180 µM) | 512 µg/mL (≈ 1180 µM) | 512 µg/mL (≈ 1180 µM) | 512 µg/mL (≈ 1180 µM) | 512 µg/mL (≈ 1180 µM) | 512 µg/mL (≈ 1180 µM) | 256 µg/mL (≈ 592 µM) | – | – |
| CCCCCn1c2ccc(C(=O)CCl)cc2c2cc(C(=O)CCl)ccc21 | 128 µg/mL (≈ 328 µM) | 128 µg/mL (≈ 328 µM) | 128 µg/mL (≈ 328 µM) | 256 µg/mL (≈ 656 µM) | 256 µg/mL (≈ 656 µM) | 512 µg/mL (≈ 1310 µM) | 256 µg/mL (≈ 656 µM) | 512 µg/mL (≈ 1310 µM) | 256 µg/mL (≈ 656 µM) | 512 µg/mL (≈ 1310 µM) | 512 µg/mL (≈ 1310 µM) | 128 µg/mL (≈ 328 µM) | 128 µg/mL (≈ 328 µM) | – | – |
| CCCCCCCCCCCCCCCCn1c2ccc(-c3csc(N)n3)cc2c2cc(-c3csc(N)n3)ccc21 | 128 µg/mL (≈ 218 µM) | 128 µg/mL (≈ 218 µM) | 256 µg/mL (≈ 435 µM) | 512 µg/mL (≈ 871 µM) | 512 µg/mL (≈ 871 µM) | 128 µg/mL (≈ 218 µM) | 512 µg/mL (≈ 871 µM) | 256 µg/mL (≈ 435 µM) | 256 µg/mL (≈ 435 µM) | 512 µg/mL (≈ 871 µM) | 256 µg/mL (≈ 435 µM) | 128 µg/mL (≈ 218 µM) | 512 µg/mL (≈ 871 µM) | – | – |
